Experimental data from ChEMBL document CHEMBL2380302, “Synthesis of 3-O-propargylated betulinic acid and its 1,2,3-triazoles as potential apoptotic agents” (Eur J Med Chem, 2013).

Tests used:
HEp-2 [1] = experiment: Cytotoxicity against human Hep2 cells at 1 uM after 48 hrs by SRB assay; type: functional; conditions: HEp-2, 48 h, read-out: GI
HCT-15 [2] = experiment: Cytotoxicity against human HCT15 cells at 1 uM after 48 hrs by SRB assay; type: functional; conditions: HCT-15, 48 h, read-out: GI
SF-295 [3] = experiment: Cytotoxicity against human SF295 cells at 30 uM after 48 hrs by SRB assay; type: functional; conditions: SF-295, 48 h, read-out: GI
SF-295 [4] = experiment: Cytotoxicity against human SF295 cells at 10 uM after 48 hrs by SRB assay; type: functional; conditions: SF-295, 48 h, read-out: GI
THP-1 [5] = experiment: Cytotoxicity against human THP1 cells after 48 hrs by SRB assay; type: functional, cell-based; conditions: THP-1, 48 h
SF-295 [6] = experiment: Cytotoxicity against human SF295 cells at 50 uM after 48 hrs by SRB assay; type: functional; conditions: SF-295, 48 h, read-out: GI
A549 [7] = experiment: Cytotoxicity against human A549 cells after 48 hrs by SRB assay; type: functional, cell-based; conditions: A549, 48 h
THP-1 [8] = experiment: Cytotoxicity against human THP1 cells at 50 uM after 48 hrs by SRB assay; type: functional; conditions: THP-1, 48 h, read-out: GI
A549 [9] = experiment: Cytotoxicity against human A549 cells at 30 uM after 48 hrs by SRB assay; type: functional; conditions: A549, 48 h, read-out: GI
HEp-2 [10] = experiment: Cytotoxicity against human Hep2 cells at 30 uM after 48 hrs by SRB assay; type: functional; conditions: HEp-2, 48 h, read-out: GI
SF-295 [11] = experiment: Cytotoxicity against human SF295 cells after 48 hrs by SRB assay; type: functional, cell-based; conditions: SF-295, 48 h
HCT-15 [12] = experiment: Cytotoxicity against human HCT15 cells after 48 hrs by SRB assay; type: functional, cell-based; conditions: HCT-15, 48 h
PC-3 [13] = experiment: Cytotoxicity against human PC3 cells at 10 uM after 48 hrs by SRB assay; type: functional; conditions: PC-3, 48 h, read-out: GI
HCT-15 [14] = experiment: Cytotoxicity against human HCT15 cells at 50 uM after 48 hrs by SRB assay; type: functional; conditions: HCT-15, 48 h, read-out: GI
DU-145 [15] = experiment: Cytotoxicity against human DU145 cells at 10 uM after 48 hrs by SRB assay; type: functional; conditions: DU-145, 48 h, read-out: GI
HL-60 [16] = experiment: Cytotoxicity against human HL60 cells at 30 uM after 48 hrs by SRB assay; type: functional; conditions: HL-60, 48 h, read-out: GI
HL-60 [17] = experiment: Cytotoxicity against human HL60 cells at 50 uM after 48 hrs by SRB assay; type: functional; conditions: HL-60, 48 h, read-out: GI
MCF7 [18] = experiment: Cytotoxicity against human MCF7 cells after 48 hrs by SRB assay; type: functional, cell-based; conditions: MCF7, 48 h
HCT-15 [19] = experiment: Cytotoxicity against human HCT15 cells at 30 uM after 48 hrs by SRB assay; type: functional; conditions: HCT-15, 48 h, read-out: GI
HL-60 [20] = experiment: Cytotoxicity against human HL60 cells at 10 uM after 48 hrs by SRB assay; type: functional; conditions: HL-60, 48 h, read-out: GI
A549 [21] = experiment: Cytotoxicity against human A549 cells at 10 uM after 48 hrs by SRB assay; type: functional; conditions: A549, 48 h, read-out: GI
MCF7 [22] = experiment: Cytotoxicity against human MCF7 cells at 50 uM after 48 hrs by SRB assay; type: functional; conditions: MCF7, 48 h, read-out: GI
HL-60 [23] = experiment: Cytotoxicity against human HL60 cells after 48 hrs by SRB assay; type: functional, cell-based; conditions: HL-60, 48 h
PC-3 [24] = experiment: Cytotoxicity against human PC3 cells after 48 hrs by SRB assay; type: functional, cell-based; conditions: PC-3, 48 h
MCF7 [25] = experiment: Cytotoxicity against human MCF7 cells at 10 uM after 48 hrs by SRB assay; type: functional; conditions: MCF7, 48 h, read-out: GI
THP-1 [26] = experiment: Cytotoxicity against human THP1 cells at 30 uM after 48 hrs by SRB assay; type: functional; conditions: THP-1, 48 h, read-out: GI
MCF7 [27] = experiment: Cytotoxicity against human MCF7 cells at 30 uM after 48 hrs by SRB assay; type: functional; conditions: MCF7, 48 h, read-out: GI
PC-3 [28] = experiment: Cytotoxicity against human PC3 cells at 30 uM after 48 hrs by SRB assay; type: functional; conditions: PC-3, 48 h, read-out: GI
DU-145 [29] = experiment: Cytotoxicity against human DU145 cells after 48 hrs by SRB assay; type: functional, cell-based; conditions: DU-145, 48 h
HEp-2 [30] = experiment: Cytotoxicity against human Hep2 cells at 10 uM after 48 hrs by SRB assay; type: functional; conditions: HEp-2, 48 h, read-out: GI
DU-145 [31] = experiment: Cytotoxicity against human DU145 cells at 50 uM after 48 hrs by SRB assay; type: functional; conditions: DU-145, 48 h, read-out: GI
HCT-15 [32] = experiment: Cytotoxicity against human HCT15 cells at 10 uM after 48 hrs by SRB assay; type: functional; conditions: HCT-15, 48 h, read-out: GI
THP-1 [33] = experiment: Cytotoxicity against human THP1 cells at 10 uM after 48 hrs by SRB assay; type: functional; conditions: THP-1, 48 h, read-out: GI
A549 [34] = experiment: Cytotoxicity against human A549 cells at 50 uM after 48 hrs by SRB assay; type: functional; conditions: A549, 48 h, read-out: GI
HEp-2 [35] = experiment: Cytotoxicity against human Hep2 cells at 50 uM after 48 hrs by SRB assay; type: functional; conditions: HEp-2, 48 h, read-out: GI
PC-3 [36] = experiment: Cytotoxicity against human PC3 cells at 50 uM after 48 hrs by SRB assay; type: functional; conditions: PC-3, 48 h, read-out: GI
HEp-2 [37] = experiment: Cytotoxicity against human Hep2 cells after 48 hrs by SRB assay; type: functional, cell-based; conditions: HEp-2, 48 h
DU-145 [38] = experiment: Cytotoxicity against human DU145 cells at 30 uM after 48 hrs by SRB assay; type: functional; conditions: DU-145, 48 h, read-out: GI

Compound | inhibition of growth at 30 µM (SF-295 [3]) [%] | inhibition of growth at 10 µM (SF-295 [4]) [%] | IC50 (THP-1 [5]) [µM] | inhibition of growth at 50 µM (SF-295 [6]) [%] | IC50 (A549 [7]) [µM] | inhibition of growth at 50 µM (THP-1 [8]) [%] | inhibition of growth at 30 µM (A549 [9]) [%] | inhibition of growth at 30 µM (HEp-2 [10]) [%] | IC50 (SF-295 [11]) [µM] | IC50 (HCT-15 [12]) [µM] | inhibition of growth at 10 µM (PC-3 [13]) [%] | inhibition of growth at 50 µM (HCT-15 [14]) [%] | inhibition of growth at 10 µM (DU-145 [15]) [%] | inhibition of growth at 30 µM (HL-60 [16]) [%] | inhibition of growth at 50 µM (HL-60 [17]) [%] | IC50 (MCF7 [18]) [µM] | inhibition of growth at 30 µM (HCT-15 [19]) [%] | inhibition of growth at 10 µM (HL-60 [20]) [%] | inhibition of growth at 10 µM (A549 [21]) [%] | inhibition of growth at 50 µM (MCF7 [22]) [%] | also measured
CO[C@@]12[C@H](COC(N)=O)C3=C(C(=O)C(C)=C(N)C3=O)N1C[C@@H]1N[C@@H]12 [MITOMYCIN] | – | – | – | – | – | – | – | – | – | – | – | – | – | – | – | – | – | – | – | – | inhibition of growth at 1 µM (HEp-2 [1]): 68%; inhibition of growth at 1 µM (HCT-15 [2]): 76%
C=C(C)[C@@H]1CC[C@]2(C(=O)O)CC[C@]3(C)[C@H](CC[C@@H]4[C@@]5(C)CC[C@H](OCc6cn(-c7cc(OC)c(OC)c(OC)c7)nn6)C(C)(C)[C@@H]5CC[C@]43C)[C@@H]12 | 51 | 28 | 39 | 51 | > 50 | 58 | 26 | 38 | 27 | > 50 | 8 | 43 | 3 | 51 | 65 | 10 | 35 | 41 | 25 | 74 | IC50 (HL-60 [23]): 37 µM; IC50 (PC-3 [24]): > 50 µM; inhibition of growth at 10 µM (MCF7 [25]): 50%; inhibition of growth at 30 µM (THP-1 [26]): 44%; inhibition of growth at 30 µM (MCF7 [27]): 71%; inhibition of growth at 30 µM (PC-3 [28]): 30%; IC50 (DU-145 [29]): > 50 µM; inhibition of growth at 10 µM (HEp-2 [30]): 8%; inhibition of growth at 50 µM (DU-145 [31]): 11%; inhibition of growth at 10 µM (HCT-15 [32]): 47%; inhibition of growth at 10 µM (THP-1 [33]): 35%; inhibition of growth at 50 µM (A549 [34]): 41%; inhibition of growth at 50 µM (HEp-2 [35]): 48%; inhibition of growth at 50 µM (PC-3 [36]): 46%; IC50 (HEp-2 [37]): > 50 µM; inhibition of growth at 30 µM (DU-145 [38]): 10%
C=C(C)[C@@H]1CC[C@]2(C(=O)O)CC[C@]3(C)[C@H](CC[C@@H]4[C@@]5(C)CC[C@H](OCc6cn(C7O[C@H](COC(C)=O)[C@@H](OC(C)=O)[C@H](OC(C)=O)[C@H]7OC(C)=O)nn6)C(C)(C)[C@@H]5CC[C@]43C)[C@@H]12 (some centres undefined) | 5 | 8 | 20 | 5 | > 50 | 76 | 20 | 39 | > 50 | 27 | 8 | 62 | 7 | 63 | 80 | > 50 | 54 | 52 | 5 | 32 | IC50 (HL-60 [23]): 8 µM; IC50 (PC-3 [24]): > 50 µM; inhibition of growth at 10 µM (MCF7 [25]): 8%; inhibition of growth at 30 µM (THP-1 [26]): 58%; inhibition of growth at 30 µM (MCF7 [27]): 15%; inhibition of growth at 30 µM (PC-3 [28]): 7%; IC50 (DU-145 [29]): > 50 µM; inhibition of growth at 10 µM (HEp-2 [30]): 24%; inhibition of growth at 50 µM (DU-145 [31]): 8%; inhibition of growth at 10 µM (HCT-15 [32]): 39%; inhibition of growth at 10 µM (THP-1 [33]): 44%; inhibition of growth at 50 µM (A549 [34]): 43%; inhibition of growth at 50 µM (HEp-2 [35]): 44%; inhibition of growth at 50 µM (PC-3 [36]): 11%; IC50 (HEp-2 [37]): > 50 µM; inhibition of growth at 30 µM (DU-145 [38]): 4%
